Like-named read-outs stand apart in the source and are kept apart here. Values belong to the compound of their own block, whether it stands above or below them.
Columns and labels:
[1] = tested on: patients with a solid malignancy; test: Phase I toxicity evaluation (NCI common toxicity criteria v2.0, DLT/MTD) of irinotecan with oral R115777; assay type: in vivo, human
Experimental: In the continuous regimen, R115777 was administered on days 3–21 of cycle 1, and then continuously thereafter, starting again on day 1 of subsequent cycles. In the intermittent regimen, R115777 was administered on days 3–14 of the first cycle, and then starting again on day 1 of subsequent cycles, but without administration on days 15–21.
Three patients were accrued at the starting dose level, and in the absence of DLT, another three patients were entered at the next dose level. For safety reasons, the next dose level was not opened until at least three patients were assessable for toxicity in the first cycle. In case only one patient developed DLT (see below), the dose level was expanded with additional patients to a total of six. […] The MTD (recommended dose) was defined as one dose level below the level at which ⩾2 of six patients experienced DLT.
Toxicity was assessed by the National Cancer Institute Version 2.0 common toxicity criteria on a scale graded 0–4 (Available: http://ctep.cancer.gov/reporti ng/ctc.html (accessed: February 27, 2004)). […] Tumours were assessed radiologically before patients were enrolled on the study, and after every even-numbered cycle. […]

ABCB1 (P-glycoprotein) = tested on: ABCB1 (P-glycoprotein); set-up: method as in earlier work; conditions: ref unpublished data, Johnson & Johnson Pharmaceutical Research and Development, cited from earlier work
CYP3A4 = tested on: CYP3A4; set-up: method as in Bohets, 1998; conditions: human hepatic microsomal preparations; at in vitro concentrations five-fold higher than the peak concentrations observed in the present study; ref Bohets, 1998; cited from earlier work
[2] = Noncompartmental plasma pharmacokinetics of R115777 with/without irinotecan; conditions: for AUC12 h Ratio (R115777 with irinotecan to R115777 alone) / Cmax Ratio (R115777 with irinotecan to R115777 alone): least-squares means, 90% confidence limits in parentheses; for tmax: median
UGT1A = conditions: 2002, cited from earlier work
clinical [3] = conditions: human, plasma, po
[4] = Noncompartmental plasma pharmacokinetics of irinotecan and SN-38 with/without R115777
[5] = human, in vivo
clinical [6] = conditions: human
[7] = set-up: method as in earlier work; conditions: ref unpublished data, Johnson & Johnson Pharmaceutical Research and Development, cited from earlier work
[8] = human, in vivo, 350 mg
[9] = Intermittent, oral R115777 200–400 mg b.i.d., dose-normalised to 200 mg, (+) Irinotecan 350 mg m^−2, mean±s.d., 12–13 patients
[10] = continuous, relative to monotherapy, not significant
[11] = intermittent regimens, not statistically significant
[12] = Continuous, (+) R115777 200 mg b.i.d. (cycle 2), irinotecan 200–350 mg m^−2, dose-adjusted to 350 mg m^−2, mean±s.d., 11–13 patients
[13] = preclinical studies, ref Gagne et al

SMILES: Cn1cncc1[C@@](N)(c1ccc(Cl)cc1)c1ccc2c(c1)c(-c1cccc(Cl)c1)cc(=O)n2C [R115777, (R)-6-[amino(4-chlorophenyl)(1-methyl-1H-imidazol-5-yl)methyl]-4-(3-chloro-phenyl)-1-methyl-2(1H)-quinolinone]
MTD (R115777 dose in the combination) ([1]; oral, 14 consecutive days in 21-day cycles, with irinotecan 350 mg m^−2 every 3 weeks): 300 mg b.i.d.
inhibition of P-glycoprotein (ABCB1 (P-glycoprotein); at physiologically relevant concentrations): does not significantly inhibit
ABCB1 substrate (ABCB1 (P-glycoprotein); preliminary data): not likely to be a substrate
effect on CYP3A4 activity (CYP3A4): inhibit CYP3A4 activity
AUC12 h Ratio (R115777 with irinotecan to R115777 alone) ([2]; Continuous): 101 (68–149) percent
Cmax Ratio (R115777 with irinotecan to R115777 alone) ([2]; Continuous): 93 (63–137) percent
Cmax ([2]; Continuous, oral R115777 200 mg b.i.d., (+) Irinotecan 200–350 mg m^−2, mean±s.d., 11–13 patients): 735 ± 377 ng/mL
AUC12 h Ratio (R115777 with irinotecan to R115777 alone) ([2]; Intermittent): 109 (93–127) percent
Cmax Ratio (R115777 with irinotecan to R115777 alone) ([2]; Intermittent): 106 (89–126) percent
AUC12 h [2, 9]: 3170 ± 1550 ng·h/mL
Cmax [2, 9]: 663 ± 296 ng/mL
tmax ([2]; Intermittent, oral R115777 200–400 mg b.i.d., (+) Irinotecan 350 mg m^−2, 12–13 patients): 2.0 h
tmax ([2]; Intermittent, oral R115777 200–400 mg b.i.d., (−) Irinotecan, 12–13 patients): 2.0 h
time at which peak plasma concentrations were observed ([2]; after oral administration, with or without co-administration of irinotecan): 2 h
decrease in the peak concentration in the combination therapy [2, 10]: 7.0%
increase in AUC in the combination therapy [2, 10]: 1.0%
increase in AUC following administration of irinotecan [2, 11]: 9.0%
increase in peak concentration following administration of irinotecan [2, 11]: 6.0%
isozyme with a minor role in N-glucuronidation (UGT1A; ref Mannens et al): UGT1A3
prominent isozyme producing the N-glucuronide (UGT1A; ref Mannens et al): UGT1A4
tmax (clinical [3]): 2.1 h
AUC(0-t) (clinical [3]; 200 mg): 3240 ± 1590 ng·h/mL
Cmax (clinical [3]; 200 mg): 840 ± 551 ng/mL
tmax (clinical [3]; 200 mg): 2 h

AUC48 h [4, 12]: 569 ± 328 ng·h/mL
Cmax [4, 12]: 70.2 ± 49.6 ng/mL
Cmax ([4]; Continuous, (−) R115777 (cycle 1), irinotecan 200–350 mg m^−2, dose-adjusted to 350 mg m^−2, mean±s.d., 11–13 patients): 63.4 ± 37.4 ng/mL
AUC48 h ([4]; Intermittent, (+) R115777 200–400 mg b.i.d. (cycle 2), irinotecan 350 mg m^−2, mean±s.d., 13 patients): 375 ± 146 ng·h/mL
AUCcar Mean diff [5]: -26.7 ± 10.1 ng·h/mL
AUClac Mean diff [5]: -59.7 ± 34.7 ng·h/mL
REClac (relative extent of conversion, AUCSN-38/AUCirinotecan × 100%, lactone) [5]: 6.91±3.05%
REClac Mean diff [5]: −0.57±0.50%
RECtotal (relative extent of conversion, AUCSN-38/AUCirinotecan × 100%, total) [5]: 2.72±1.02%
RECtotal Mean diff [5]: −0.09±0.13%
half-life (clinical [6]; in vivo): 13.4 ± 4.44 h
half-life (clinical [6]; in vivo, 350 mg): 18.1 ± 13.1 h
Cmax (clinical [6]; plasma, intravenous): 41.5 ± 20.1 ng/mL
AUC(0-t) (clinical [6]; plasma, intravenous, 350 mg): 326 ± 134 ng·h/mL
SMILES: CCc1c2c(nc3ccc(O)cc13)-c1cc3c(c(=O)n1C2)COC(=O)[C@]3(O)CC [SN-38, 7-ethyl-10-hydroxycamptothecin]
isozymes with a minor role in glucuronidation (UGT1A; [13]): UGT1A6, UGT1A8, and UGT1A10
major isozymes involved in glucuronidation (UGT1A; [13]): UGT1A1, UGT1A7, and UGT1A9

SMILES: CC(=O)O[C@@]12CO[C@@H]1C[C@H](O)[C@@]1(C)C(=O)[C@H](O)C3=C(C)[C@@H](OC(=O)[C@H](O)[C@@H](NC(=O)OC(C)(C)C)c4ccccc4)C[C@@](O)([C@@H](OC(=O)c4ccccc4)[C@H]21)C3(C)C [docetaxel]
plasma AUC of docetaxel ([7]; continuous R115777 (200 mg b.i.d.), subset of subjects): relatively unchanged
effect of R115777 on the systemic exposure to docetaxel ([7]; single-dose administration of R115777 (200 or 300 mg)): little effect

SMILES: CCc1c2c(nc3ccc(OC(=O)N4CCC(N5CCCCC5)CC4)cc13)-c1cc3c(c(=O)n1C2)COC(=O)[C@]3(O)CC [irinotecan]
AUC48 h [8]: 20 270±6020 ng h ml^−1
MTD (irinotecan dose in the combination) ([1]; given every 3 weeks, with R115777 300 mg b.i.d. for 14 consecutive days): 350 mg m^−2
AUCcar Mean diff [5]: -1950 ± 641 ng·h/mL
AUClac Mean diff [5]: -269 ± 101 ng·h/mL
Cmax (clinical [6]; in vivo): 3620 ± 632 ng/mL
